Test results: US20150065470A1, “Steroid Sulfatase Inhibitor Regimen for the Treatment of Endometriosis” (priority 2012, published 2015)
Like-named read-outs stand apart in the source and are kept apart here.

Assays:
[1] = target: T1, STS activity in Peripheral Blood Mononuclear Cells (PBMCs) (Homo sapiens, UniProt P08842); test: STS inhibition in PBMCs, loading and maintenance phase, Example 4; type: in vivo; conditions: concomitant NETA 5 mg daily, patients
T1 construct: Pharmacodynamic properties were investigated by assessment of the STS activity in PBMCs; endogenous in cells; host or cells: peripheral blood mononuclear cells (PBMCs) of dosed women
T1 sequence (P08842 22-583): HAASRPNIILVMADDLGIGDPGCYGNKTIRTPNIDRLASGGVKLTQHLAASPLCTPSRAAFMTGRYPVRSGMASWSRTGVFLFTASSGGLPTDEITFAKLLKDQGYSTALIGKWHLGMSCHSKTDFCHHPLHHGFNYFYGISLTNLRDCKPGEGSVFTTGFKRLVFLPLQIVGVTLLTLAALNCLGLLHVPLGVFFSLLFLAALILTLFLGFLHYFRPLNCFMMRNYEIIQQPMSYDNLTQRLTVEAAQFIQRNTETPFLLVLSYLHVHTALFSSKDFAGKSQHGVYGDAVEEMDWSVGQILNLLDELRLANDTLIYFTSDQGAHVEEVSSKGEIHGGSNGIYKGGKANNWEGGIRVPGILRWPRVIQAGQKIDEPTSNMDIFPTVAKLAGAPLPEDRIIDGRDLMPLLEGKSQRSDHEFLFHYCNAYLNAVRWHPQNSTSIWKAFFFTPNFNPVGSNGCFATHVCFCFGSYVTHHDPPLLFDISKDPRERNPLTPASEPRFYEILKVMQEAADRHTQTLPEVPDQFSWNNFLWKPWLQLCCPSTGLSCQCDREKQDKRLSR
From the text: The study is multicentre, randomised, two-arm, parallel group, double-blind, placebo controlled where eligible subjects were randomised on study day 1 in a 1:1 ratio into treatment group A or B between day 1 and day 4 of the menstrual bleeding.
The baseline is established in terms of endometriosis profile regarding pelvic pain, dysmenorrhea, dyspaneuria and bleeding pattern and those parameters are followed during the treatment. During the loading phase the subjects are monitored on day 7, day 21 and on week 4 and during the maintenance phase monthly on week 8, week 12 and week 16.

[2] = test system: STS; test: Functional biomarkers of STS activity (E1-S to E1 and DHEA-S to DHEA ratios), Example 2; type: in vivo, human
Procedure: Hormone profiles were determined as described in Example 1.
As described before, STS converts sulphate precursors of estrogens.

[3] = target: T2, Steroid Sulfatase in PBMCs (Homo sapiens, UniProt P08842); test: STS activity in PBMCs, Example 1 (radio scintillation assay); type: in vivo; conditions: for Emax: read-out: Emax (%) maximal inhibition of Steroid Sulfatase in PBMCs, Mean (SD); for STS inhibition in PBMCs: single dose 4 mg E2MATE
T2 construct: Pharmacodynamic properties were investigated by assessment of the STS activity in PBMCs; endogenous in cells; host or cells: peripheral blood mononuclear cells (PBMCs) of dosed women
T2 sequence (P08842 22-583): T1 sequence (P08842 22-583)
Procedure: Treatment was started within 72 hours after the beginning of menstrual bleeding.
The active doses tested were 0.25 mg (1st cohort), 1 mg, 4 mg and 8 mg.
The active doses tested were 0.25 mg, 1 mg and 4 mg.
Ovarian and endometrium transvaginal ultrasounds throughout the study (Part A and B) and an endometrial biopsy (Part B only) were performed.
Pharmacodynamic properties were investigated by assessment of the STS activity in PBMCs and by measurement of the serum hormonal profile comprising the ratio of E1-S to E1 and DHEA-S to DHEA. […] Hormone profiles were analysed using commercially available ELISA or RIA kits.

[4] = Pharmacokinetic model: accumulation of E2MATE+EMATE, Example 3; parameters: species or system human
Procedure: As shown on FIG. 2, the accumulation ratio (Racc) based on the accumulation between two doses during one week time could be calculated. […] This could be achieved for example by the administration of 1 mg every 3 days or 2 mg per week (FIG. 2B).

[5] = NETA treatment period, days 8 to 29
[6] = multiple dose 0.25 mg E2MATE weekly for four weeks
[7] = multiple dose 1 mg E2MATE weekly for four weeks
[8] = multiple dose 4 mg E2MATE weekly for four weeks

SMILES: C[C@]12CC[C@@H]3c4ccc(OS(N)(=O)=O)cc4CC[C@H]3[C@@H]1CC[C@@H]2O [E2MATE, Estradiol-3-o-sulfamate]
- STS inhibition in PBMCs after the loading phase ([1]; Day 28, 16 mg over 4 weeks): almost complete
- STS inhibition in PBMCs at maintenance dose ([1]; Day 56, 2 mg/week): almost entire
- Baseline relative change of the DHEA-S/DHEA [%] ([2]; Day 1): 0%
- Baseline relative change of the E1-S/E1 [%] ([2]; Day 1): 0%
- Baseline relative change of the DHEA-S/DHEA [%] ([2]; Day 8): 133%
- Baseline relative change of the E1-S/E1 [%] ([2]; Day 8): 208%
- Baseline relative change of the DHEA-S/DHEA [%] ([2]; Day 15): 116%
- Baseline relative change of the E1-S/E1 [%] ([2]; Day 15): 282%
- Baseline relative change of the DHEA-S/DHEA [%] ([2]; Day 22): 113%
- Baseline relative change of the E1-S/E1 [%] ([2]; Day 22): 218%
- Baseline relative change of the DHEA-S/DHEA [%] ([2]; Day 29): 148%
- Baseline relative change of the E1-S/E1 [%] ([2]; Day 29): 194%
- Baseline relative change of the DHEA-S/DHEA [%] ([2]; Day 57): 195%
- Baseline relative change of the E1-S/E1 [%] ([2]; Day 57): 218%
- Baseline relative change of the DHEA-S/DHEA [%] ([2]; Day 85): 232%
- Baseline relative change of the E1-S/E1 [%] ([2]; Day 85): 243%
- Baseline relative change of the DHEA-S/DHEA [%] ([2]; Day 113): 175%
- Baseline relative change of the E1-S/E1 [%] ([2]; Day 113): 400%
- baseline relative mean increases of the DHEA-S to DHEA ratio (up to) [2, 5]: up to 265%
- baseline relative mean increases of the E1-S to E1 ratio (up to) [2, 5]: up to 282%
- AVG (%) average inhibition of Steroid Sulfatase in PBMCs, Mean (SD) [3, 6]: 22.7 (16.5) %
- Emax [3, 6]: 42%
- AVG (%) average inhibition of Steroid Sulfatase in PBMCs, Mean (SD) [3, 7]: 43.5 (23.2) %
- Emax [3, 7]: 79.5%
- AVG (%) average inhibition of Steroid Sulfatase in PBMCs, Mean (SD) [3, 8]: 88.4 (9.5) %
- Emax [3, 8]: 100%
- Emax ([3]; po, single oral dose 0.25 mg E2MATE): 59.5%
- Emax ([3]; po, single oral dose 1 mg E2MATE): 58.7%
- Emax ([3]; po, single oral dose 4 mg E2MATE): 99.5%
- STS inhibition in PBMCs ([3]; Day 0 of cycle 2 (approximately 56 days after dosing)): 82%
- STS inhibition in PBMCs ([3]; Day 3): 96%
- AVG (%) average inhibition of Steroid Sulfatase in PBMCs, Mean (SD) ([3]; single oral dose 0.25 mg E2MATE, Day 1 until EOS): 23.2 (14.6) %
- AVG (%) average inhibition of Steroid Sulfatase in PBMCs, Mean (SD) ([3]; single oral dose 1 mg E2MATE, Day 1 until EOS): 25.2 (10.6) %
- accumulation ratio (Racc) of E2MATE+EMATE ([4]; Cmin 504 h versus Cmin 168 h, 4 mg/week during 4 weeks): about 2.7
- E2MATE dose necessary to maintain the blood levels reached after the loading period ([4]; after loading 4 mg/week during 4 weeks): 0.36 mg/day
